pEC50, pKi: −log10 of the molar value.
Assays:
[1] = target: human Somatostatin 4 receptor (SSTR4) (Homo sapiens (Human), UniProt P31391); assay: cAMP assay with human somatostatin 4 receptor (hSSTR4 expressing H4 cells); type: cell-based; settings: read-out: SSTR4 agonism EC50
Procedure: Method Description for cAMP Assay with Human Somatostatin 4 Receptor
The activation of the SSTR4 receptor (Gi coupled) causes an inhibition of intracellular cAMP after stimulation with Forskolin, which can be quantifiable by use of a suitable assay Kit and an adequate plate reader. This technique is used to characterize pharmacological effects of the SSTR4 receptor agonists by use of hSSTR4 expressing H4 cells.
Compounds are dissolved and diluted in DMSO. The final test solution contains 1% DMSO. […] Cells are centrifuged and suspended in assay buffer (incl. 1:100 diluted Alexa antibody).
For the assay 5 μl of a cell suspension (approximately 5000 cells/well)—incl. Alexa antibody (diluted 1:100) are added into a 384 well MTP microtitre plate excepting one row or column (depending on the plate layout), which is reserved for the standard curve. Then 2 μl of compound sample is added as concentration response curve (e.g. 1e-5 M to 6e-10 M), usually in triplicates. Each assay contains incubations with vehicle controls instead of compound as controls for non-inhibited cAMP generation (100% CTL; ‘high values’) and incubations with 1 μM Somatosatin as controls for full inhibition and background (0% CTL; ‘low values’). […] Then the plates are shaken briefly and incubated for 60 min at room temperature. After 60 min 10 μl of the detection mix is added into all wells followed by an additional incubation period of 1 h. The plates are read in a suitable plate reader.
From this ratio, cAMP concentrations are calculated from standard curve and the EC50 is estimated by least square curve fit program.

[2] = Metabolic stability in pooled human liver microsomes (half-life); type: in vitro ADME; settings: 1 μM test compound; for Half-life t1/2: 37° C.; for half-life at 1 μM: pH 7.6, 37° C., read-out: Half-life t1/2
Procedure: The metabolic stability of the compounds according to the invention may be investigated as follows:
The metabolic degradation of the test compound is assayed at 37° C. with pooled human liver microsomes. The final incubation volume of 100 μl per time point contains TRIS buffer pH 7.6 at room temperature (0.1 M), magnesium chloride (5 mM), microsomal protein (1 mg/mL) and the test compound at a final concentration of 1 μM. Following a short preincubation period at 37° C., the reactions are initiated by addition of beta-nicotinamide adenine dinucleotide phosphate, reduced form (NADPH, 1 mM), and terminated by transferring an aliquot into solvent after different time points. After centrifugation (10000 g, 5 min), an aliquot of the supernatant is assayed by LC-MS/MS for the amount of parent compound. The half-life is determined by the slope of the semi-logarithmic plot of the concentration-time profile.

[3] = target: human SSTR4 (Homo sapiens (Human), UniProt P31391); assay: Radioligand binding assay, CHO cell membranes expressing recombinant human SSTR4; settings: [3-125I-Tyr]-Somatostatin-(1-14)
Procedure: Receptor binding assays refer to a technique in which labeled receptor ligands are used to detect binding to a receptor. In competition experiments test compounds, which are not labeled, compete with the binding side of a labeled ligand. The displacement of the labeled ligand by the test compound leads to a decreased signal.
For the binding experiments 200 μL of membrane homogenate from one of the following protein amounts is used: hSSTR1 (40 μg/well); hSSTR2 (25 μg/well); hSSTR3 (1.5 μg/well); hSSTR4 (0.5 μg/well); hSSTR5 (25 μg/well). […] The protein-bound radioactivity is measured in a suitable reader. The non-specific binding is defined as radioactivity bound in the presence of 1 μM Somatostatin-14 during the incubation period.
The analysis of the concentration-binding curves is performed by computer-assisted nonlinear least square curve fitting method using the model of one receptor binding site.

Sequence of human Somatostatin 4 receptor (SSTR4) (P31391 whole entry): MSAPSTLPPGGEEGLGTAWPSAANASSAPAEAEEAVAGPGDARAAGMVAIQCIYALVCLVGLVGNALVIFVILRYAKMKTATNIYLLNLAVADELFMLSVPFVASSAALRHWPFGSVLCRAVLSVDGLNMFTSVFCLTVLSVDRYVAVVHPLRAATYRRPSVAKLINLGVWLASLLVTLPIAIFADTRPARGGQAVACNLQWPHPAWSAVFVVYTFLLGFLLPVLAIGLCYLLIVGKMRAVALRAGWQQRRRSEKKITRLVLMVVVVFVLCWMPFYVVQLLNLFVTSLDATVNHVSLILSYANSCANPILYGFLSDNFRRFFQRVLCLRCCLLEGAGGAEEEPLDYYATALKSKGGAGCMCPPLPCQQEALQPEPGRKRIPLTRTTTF
Sequence of human SSTR4 (P31391 whole entry): as above

| SMILES | Half-life t1/2 [2] [h] | other results |
| --- | --- | --- |
| O=C(NC1CCCCC1c1ccccc1)[C@H]1[C@@H]2CNC[C@@H]21 (stereo partly drawn) [Example 9] | – | pEC50 [1]: 6.27 |
| CC(C)(COc1cccnc1C(F)(F)F)NC(=O)[C@H]1[C@@H]2CNC[C@@H]21.Cl [Example 18] | >2.17 | – |
| CC(C)(NC(=O)[C@H]1[C@@H]2CNC[C@@H]21)c1cnc2ccccn12.Cl [Example 20] | >2.17 | – |
| CC(C)(NC(=O)[C@H]1[C@@H]2CNC[C@@H]21)c1ccnc2ccccc12.Cl [Example 21] | >2.17 | – |
| Cc1cc2ccccc2c(C(C)(C)NC(=O)[C@H]2[C@@H]3CNC[C@@H]32)n1.Cl [Example 22] | >2.17 | – |
| CC(C)(NC(=O)[C@H]1[C@@H]2CNC[C@@H]21)c1ncccc1C(F)(F)F.Cl [Example 23] | >2.17 | – |
| CC(C)(NC(=O)[C@H]1[C@@H]2CNC[C@@H]21)c1nccc2ccccc12.Cl [Example 24] | >2.17 | – |
| Cc1cccnc1C(C)(C)NC(=O)[C@H]1[C@@H]2CNC[C@@H]21.Cl.Cl [Example 25] | >2.17 | – |
| CCc1ccccc1OCC(C)(C)NC(=O)[C@H]1[C@@H]2CNC[C@@H]21 [Example 39] | >2.17 | – |
| Cc1ncccc1OCC(C)(C)NC(=O)[C@H]1[C@@H]2CNC[C@@H]21.Cl [Example 44] | >2.17 | – |
| Cc1cc(C2CC2)ccc1OCC(C)(C)NC(=O)[C@H]1[C@@H]2CNC[C@@H]21 [Example 65] | – | half-life at 1 μM [2]: > 2.17 h |
| Cc1ccnnc1OCC(C)(C)NC(=O)[C@H]1[C@@H]2CNC[C@@H]21.Cl [Example 67] | >2.17 | – |
| CC(C)(NC(=O)[C@H]1[C@@H]2CNC[C@@H]21)c1ncc2ccccn12.Cl [Example 68] | >2.17 | – |
| Cc1cccc2c(C(C)(C)NC(=O)[C@H]3[C@@H]4CNC[C@@H]43)n[nH]c12 [Example 93] | – | pEC50 [1]: 10.00; pKi [3]: 8.44; half-life at 1 μM [2]: > 2.17 h |
| CC(C)(NC(=O)[C@H]1[C@@H]2CNC[C@@H]21)c1n[nH]c2ccccc12 [Example 94] | – | pEC50 [1]: 8.80; half-life at 1 μM [2]: > 2.17 h |
| CC(C)(NC(=O)[C@H]1[C@@H]2CNC[C@@H]21)c1noc2c(F)cccc12 [Example 101] | >2.17 | – |
| CC(C)(NC(=O)[C@H]1[C@@H]2CNC[C@@H]21)c1n[nH]c2c(C(F)(F)F)cccc12 [Example 110] | – | pEC50 [1]: 9.15; half-life at 1 μM [2]: > 2.17 h |
| CC(C)(NC(=O)[C@H]1[C@@H]2CNC[C@@H]21)c1nc(C2CC2)c2ccccn12.Cl [Example 120] | >2.17 | – |
| Cc1cccn2c(C(C)(C)NC(=O)[C@H]3[C@@H]4CNC[C@@H]43)ncc12.Cl [Example 126] | >2.17 | – |
| Cc1cccn2c(C(C)(C)NC(=O)[C@H]3[C@@H]4CNC[C@@H]43)nc(C)c12.Cl [Example 130] | – | pEC50 [1]: 9.52; half-life at 1 μM [2]: > 2.17 h |
| CC(C)(NC(=O)[C@H]1[C@@H]2CNC[C@@H]21)c1ncc2c(F)cccn12.Cl [Example 133] | >2.17 | – |
| Cc1nc(C(C)(C)NC(=O)[C@H]2[C@@H]3CNC[C@@H]32)c2ccccc2n1 [Example 138] | >2.17 | – |

Source: patent publication US10166214B2, “Somatostatin receptor subtype 4 (SSTR4) agonists” (Centrexion Therapeutics Corporation, priority 2013, dated 2019)
